Laboratory results as given in PubChem BioAssay (NCI).
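Results reflect a 48-hour exposure of cells in 96-well plates to compound at five concentrations. At the GI50, growth is halved. The concentration for full growth arrest is given as TGI.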

Experiments:
Test in all cases: NCI tumour cell line growth inhibition, 48 h
786-0 renal = tested on: 786-0 renal
A498 renal = tested on: A498 renal
A549 NSCLC = tested on: A549 NSCLC
ACHN renal = tested on: ACHN renal
BT-549 breast = tested on: BT-549 breast
CAKI-1 renal = tested on: CAKI-1 renal
CCRF-CEM leukemia = tested on: CCRF-CEM leukemia
COLO 205 colon = tested on: COLO 205 colon
DU-145 prostate = tested on: DU-145 prostate
EKVX NSCLC = tested on: EKVX NSCLC
HCC-2998 colon = tested on: HCC-2998 colon
HCT-116 colon = tested on: HCT-116 colon
HCT-15 colon = tested on: HCT-15 colon
HL-60(TB) leukemia = tested on: HL-60(TB) leukemia
HOP-62 NSCLC = tested on: HOP-62 NSCLC
HOP-92 NSCLC = tested on: HOP-92 NSCLC
HS 578T breast = tested on: HS 578T breast
HT29 colon = tested on: HT29 colon
IGROV1 ovarian = tested on: IGROV1 ovarian
K-562 leukemia = tested on: K-562 leukemia
KM12 colon = tested on: KM12 colon
LOX IMVI melanoma = tested on: LOX IMVI melanoma
M14 melanoma = tested on: M14 melanoma
MALME-3M melanoma = tested on: MALME-3M melanoma
MCF7 breast = tested on: MCF7 breast
MDA-MB-231 breast = tested on: MDA-MB-231 breast
MDA-MB-435 = tested on: MDA-MB-435
MOLT-4 leukemia = tested on: MOLT-4 leukemia
NCI-H226 lung = tested on: NCI-H226 lung
NCI-H23 lung = tested on: NCI-H23 lung
NCI-H460 lung = tested on: NCI-H460 lung
NCI-H522 lung = tested on: NCI-H522 lung
NCI/ADR-RES ovarian = tested on: NCI/ADR-RES ovarian
OVCAR-3 ovarian = tested on: OVCAR-3 ovarian
OVCAR-4 ovarian = tested on: OVCAR-4 ovarian
OVCAR-5 ovarian = tested on: OVCAR-5 ovarian
OVCAR-8 ovarian = tested on: OVCAR-8 ovarian
PC-3 prostate = tested on: PC-3 prostate
RPMI-8226 leukemia = tested on: RPMI-8226 leukemia
RXF 393 renal = tested on: RXF 393 renal
SF-268 CNS = tested on: SF-268 CNS
SF-295 CNS = tested on: SF-295 CNS
SF-539 CNS = tested on: SF-539 CNS
SK-MEL-2 melanoma = tested on: SK-MEL-2 melanoma
SK-MEL-28 melanoma = tested on: SK-MEL-28 melanoma
SK-MEL-5 melanoma = tested on: SK-MEL-5 melanoma
SK-OV-3 ovarian = tested on: SK-OV-3 ovarian
SN12C renal = tested on: SN12C renal
SNB-19 CNS = tested on: SNB-19 CNS
SNB-75 CNS = tested on: SNB-75 CNS
SR leukemia = tested on: SR leukemia
SW-620 colon = tested on: SW-620 colon
T-47D breast = tested on: T-47D breast
TK-10 renal = tested on: TK-10 renal
U251 CNS = tested on: U251 CNS
UACC-257 melanoma = tested on: UACC-257 melanoma
UACC-62 melanoma = tested on: UACC-62 melanoma
UO-31 renal = tested on: UO-31 renal

For `CC1C=CC(OC(=O)C(C)(O)CCC(O)(C(=O)OC2CC(O)C(C(C)C)CC2(C)O)C(C)C)(C(C)C)CC1` (stereo unspecified), which GI50 (786-0 renal) is on record?
The GI50 was 681 nM.

What about the TGI (786-0 renal) of the same compound?
The TGI was 1370 nM.

And the GI50 (A498 renal)?
The GI50 was 844 nM.

And the TGI (A498 renal)?
Its TGI is 2030 nM.

And the GI50 (A549 NSCLC)?
Its GI50 is 567 nM.

What about the TGI (A549 NSCLC) of the same compound?
The TGI was 1390 nM.

And the GI50 (ACHN renal)?
Its GI50 is 322 nM.

What about the TGI (ACHN renal) of the same compound?
The TGI was 949 nM.

What about the GI50 (BT-549 breast) of the same compound?
The GI50 was 561 nM.

And the TGI (BT-549 breast)?
The TGI was 1220 nM.

What about the GI50 (CAKI-1 renal) of the same compound?
Its GI50 is 594 nM.

And the TGI (CAKI-1 renal)?
Its TGI is 1200 nM.

And the GI50 (CCRF-CEM leukemia)?
The GI50 was 244 nM.

What about the TGI (CCRF-CEM leukemia) of the same compound?
Its TGI is 901 nM.

And the GI50 (COLO 205 colon)?
The GI50 was 747 nM.

What about the TGI (COLO 205 colon) of the same compound?
Its TGI is 1610 nM.

And the GI50 (DU-145 prostate)?
The GI50 was 272 nM.

And the TGI (DU-145 prostate)?
Its TGI is 608 nM.

And the GI50 (EKVX NSCLC)?
Its GI50 is 618 nM.

What about the TGI (EKVX NSCLC) of the same compound?
The TGI was 1410 nM.

And the GI50 (HCC-2998 colon)?
Its GI50 is 2700 nM.

What about the TGI (HCC-2998 colon) of the same compound?
Its TGI is 8910 nM.

And the GI50 (HCT-116 colon)?
The GI50 was 160 nM.

What about the TGI (HCT-116 colon) of the same compound?
The TGI was 449 nM.

And the GI50 (HCT-15 colon)?
The GI50 was 235 nM.

What about the TGI (HCT-15 colon) of the same compound?
Its TGI is 869 nM.

What about the GI50 (HL-60(TB) leukemia) of the same compound?
Its GI50 is 655 nM.

What about the TGI (HL-60(TB) leukemia) of the same compound?
The TGI was 1680 nM.

What about the GI50 (HOP-62 NSCLC) of the same compound?
The GI50 was 641 nM.

What about the TGI (HOP-62 NSCLC) of the same compound?
The TGI was 1660 nM.

What about the GI50 (HOP-92 NSCLC) of the same compound?
Its GI50 is 403 nM.

What about the TGI (HOP-92 NSCLC) of the same compound?
Its TGI is 1860 nM.

And the GI50 (HS 578T breast)?
The GI50 was 792 nM.

What about the TGI (HS 578T breast) of the same compound?
The TGI was 4840 nM.

What about the GI50 (HT29 colon) of the same compound?
The GI50 was 599 nM.

And the TGI (HT29 colon)?
The TGI was 1560 nM.

And the GI50 (IGROV1 ovarian)?
The GI50 was 232 nM.

What about the TGI (IGROV1 ovarian) of the same compound?
Its TGI is 640 nM.

What about the GI50 (K-562 leukemia) of the same compound?
Its GI50 is 91.6 nM.

And the TGI (K-562 leukemia)?
Its TGI is 218 nM.

What about the GI50 (KM12 colon) of the same compound?
The GI50 was 689 nM.

And the TGI (KM12 colon)?
Its TGI is 1450 nM.

What about the GI50 (LOX IMVI melanoma) of the same compound?
The GI50 was 73.4 nM.

And the TGI (LOX IMVI melanoma)?
The TGI was 142 nM.

What about the GI50 (M14 melanoma) of the same compound?
The GI50 was 745 nM.

What about the TGI (M14 melanoma) of the same compound?
The TGI was 1810 nM.

What about the GI50 (MALME-3M melanoma) of the same compound?
Its GI50 is 709 nM.

And the TGI (MALME-3M melanoma)?
The TGI was 1450 nM.

And the GI50 (MCF7 breast)?
The GI50 was 182 nM.

What about the TGI (MCF7 breast) of the same compound?
Its TGI is 904 nM.

And the GI50 (MDA-MB-231 breast)?
Its GI50 is 656 nM.

What about the TGI (MDA-MB-231 breast) of the same compound?
Its TGI is 1360 nM.

What about the GI50 (MDA-MB-435) of the same compound?
The GI50 was 521 nM.

What about the TGI (MDA-MB-435) of the same compound?
Its TGI is 1130 nM.

And the GI50 (MOLT-4 leukemia)?
Its GI50 is 193 nM.

And the TGI (MOLT-4 leukemia)?
The TGI was 861 nM.

What about the GI50 (NCI-H226 lung) of the same compound?
The GI50 was 716 nM.

And the TGI (NCI-H226 lung)?
The TGI was 2480 nM.

What about the GI50 (NCI-H23 lung) of the same compound?
The GI50 was 591 nM.

And the TGI (NCI-H23 lung)?
Its TGI is 1330 nM.

What about the GI50 (NCI-H460 lung) of the same compound?
The GI50 was 799 nM.

What about the TGI (NCI-H460 lung) of the same compound?
The TGI was 1590 nM.

What about the GI50 (NCI-H522 lung) of the same compound?
Its GI50 is 576 nM.

And the TGI (NCI-H522 lung)?
The TGI was 1360 nM.

What about the GI50 (NCI/ADR-RES ovarian) of the same compound?
Its GI50 is 725 nM.

And the TGI (NCI/ADR-RES ovarian)?
The TGI was 2220 nM.

What about the GI50 (OVCAR-3 ovarian) of the same compound?
Its GI50 is 188 nM.

What about the TGI (OVCAR-3 ovarian) of the same compound?
The TGI was 409 nM.

And the GI50 (OVCAR-4 ovarian)?
The GI50 was 746 nM.

What about the TGI (OVCAR-4 ovarian) of the same compound?
Its TGI is 1710 nM.

What about the GI50 (OVCAR-5 ovarian) of the same compound?
The GI50 was 665 nM.

What about the TGI (OVCAR-5 ovarian) of the same compound?
Its TGI is 1350 nM.

What about the GI50 (OVCAR-8 ovarian) of the same compound?
Its GI50 is 835 nM.

What about the TGI (OVCAR-8 ovarian) of the same compound?
The TGI was 2690 nM.

And the GI50 (PC-3 prostate)?
Its GI50 is 676 nM.

What about the TGI (PC-3 prostate) of the same compound?
The TGI was 1400 nM.

What about the GI50 (RPMI-8226 leukemia) of the same compound?
Its GI50 is 161 nM.

What about the TGI (RPMI-8226 leukemia) of the same compound?
The TGI was 711 nM.

And the GI50 (RXF 393 renal)?
The GI50 was 570 nM.

What about the TGI (RXF 393 renal) of the same compound?
Its TGI is 1350 nM.

What about the GI50 (SF-268 CNS) of the same compound?
Its GI50 is 645 nM.

What about the TGI (SF-268 CNS) of the same compound?
Its TGI is 1640 nM.

And the GI50 (SF-295 CNS)?
The GI50 was 657 nM.

And the TGI (SF-295 CNS)?
Its TGI is 1410 nM.

And the GI50 (SF-539 CNS)?
The GI50 was 685 nM.

And the TGI (SF-539 CNS)?
Its TGI is 1350 nM.

What about the GI50 (SK-MEL-2 melanoma) of the same compound?
Its GI50 is 769 nM.

What about the TGI (SK-MEL-2 melanoma) of the same compound?
Its TGI is 1640 nM.

What about the GI50 (SK-MEL-28 melanoma) of the same compound?
Its GI50 is 2100 nM.

And the TGI (SK-MEL-28 melanoma)?
The TGI was 8270 nM.

What about the GI50 (SK-MEL-5 melanoma) of the same compound?
The GI50 was 377 nM.

What about the TGI (SK-MEL-5 melanoma) of the same compound?
Its TGI is 1030 nM.

What about the GI50 (SK-OV-3 ovarian) of the same compound?
The GI50 was 799 nM.

What about the TGI (SK-OV-3 ovarian) of the same compound?
The TGI was 4100 nM.

And the GI50 (SN12C renal)?
Its GI50 is 149 nM.

And the TGI (SN12C renal)?
Its TGI is 602 nM.

What about the GI50 (SNB-19 CNS) of the same compound?
The GI50 was 1190 nM.

What about the TGI (SNB-19 CNS) of the same compound?
Its TGI is 16200 nM.

And the GI50 (SNB-75 CNS)?
Its GI50 is 542 nM.

What about the TGI (SNB-75 CNS) of the same compound?
The TGI was 1790 nM.

What about the GI50 (SR leukemia) of the same compound?
The GI50 was 263 nM.

What about the TGI (SR leukemia) of the same compound?
The TGI was 46300 nM.

And the GI50 (SW-620 colon)?
The GI50 was 604 nM.

What about the TGI (SW-620 colon) of the same compound?
The TGI was 1410 nM.

And the GI50 (T-47D breast)?
Its GI50 is 292 nM.

And the TGI (T-47D breast)?
Its TGI is 1810 nM.

And the GI50 (TK-10 renal)?
Its GI50 is 754 nM.

What about the TGI (TK-10 renal) of the same compound?
The TGI was 1500 nM.

What about the GI50 (U251 CNS) of the same compound?
The GI50 was 582 nM.

What about the TGI (U251 CNS) of the same compound?
Its TGI is 1320 nM.

What about the GI50 (UACC-257 melanoma) of the same compound?
Its GI50 is 911 nM.

What about the TGI (UACC-257 melanoma) of the same compound?
Its TGI is 2560 nM.

And the GI50 (UACC-62 melanoma)?
Its GI50 is 511 nM.

And the TGI (UACC-62 melanoma)?
Its TGI is 2790 nM.

What about the GI50 (UO-31 renal) of the same compound?
The GI50 was 329 nM.

And the TGI (UO-31 renal)?
The TGI was 1020 nM.
